Data published in US9062041B2 (Bayer Intellectual Property GmbH, priority 2011, dated 2015).

Legend:
Type in all cases: cell-based
[1] = target: T1, human PGD receptor (Homo sapiens, UniProt Q13258); test: cAMP antagonism test on the human prostaglandin D receptor (HTRF cAMP detection); conditions: selectivity towards hDP, IC50 measured by cAMP antagonism test
T1 sequence (Q13258 1-359): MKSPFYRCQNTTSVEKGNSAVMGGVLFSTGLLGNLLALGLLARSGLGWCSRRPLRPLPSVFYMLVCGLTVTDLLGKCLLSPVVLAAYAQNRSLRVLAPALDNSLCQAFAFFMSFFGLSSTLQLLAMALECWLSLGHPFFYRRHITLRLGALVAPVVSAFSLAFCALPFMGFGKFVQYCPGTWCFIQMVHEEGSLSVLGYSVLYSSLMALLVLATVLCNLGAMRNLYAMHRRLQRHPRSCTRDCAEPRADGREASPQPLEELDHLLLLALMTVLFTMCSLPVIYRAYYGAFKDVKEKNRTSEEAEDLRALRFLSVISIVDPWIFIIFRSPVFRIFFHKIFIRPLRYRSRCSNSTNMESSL
Summary of the method: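 HTRF competition read-out (665/620 nm ratio ×10000), where higher FRET means less cAMP, i.e. antagonism. Compounds (0.8 nM–16.5 μM) were preincubated 20 min at RT with cells and cAMP-d2, PGD2 (3× solution, 6 nM) in IBMX-containing PBS added for 30 min at RT, then cells lysed 20 min.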

[2] = target: EP2 subtype of the human PGE2 receptor (Homo sapiens, UniProt P43116); test: cAMP antagonism test on the human EP2 receptor (HTRF cAMP detection); conditions: hEP2 receptor, read-out: Antagonism hEP2 IC50
Summary of the method: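 Read-out is a competitive HTRF for cAMP: lysate cAMP displaces cAMP-d2 from Eu cryptate-labelled antibody, and antagonism raises the 665/620 nm ratio. Compound (0.8 nM–16.5 μM) added to EP2 cells 20 min at RT before 60 min PGE2 challenge (3× stock 1.5 nM) with IBMX, followed by 20 min lysis.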

[3] = target: EP4 subtype of the human PGE2 receptor (Homo sapiens, UniProt P35408); test: cAMP antagonism test on the human EP4 receptor (HTRF cAMP detection); conditions: selectivity towards hEP4, IC50 measured by cAMP antagonism test
Summary of the method: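 Competitive HTRF cAMP read-out (cAMP-d2 vs Eu-cryptate anti-cAMP antibody, 665/620 nm ratio) on lysed human EP4 cells. Compound (0.8 nM–16.5 μM) applied 20 min at RT before 60 min PGE2 challenge (3× solution 0.3 nM, IBMX present); 20 min lysis precedes reading.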

Sequence of EP4 subtype of the human PGE2 receptor (P35408 whole entry): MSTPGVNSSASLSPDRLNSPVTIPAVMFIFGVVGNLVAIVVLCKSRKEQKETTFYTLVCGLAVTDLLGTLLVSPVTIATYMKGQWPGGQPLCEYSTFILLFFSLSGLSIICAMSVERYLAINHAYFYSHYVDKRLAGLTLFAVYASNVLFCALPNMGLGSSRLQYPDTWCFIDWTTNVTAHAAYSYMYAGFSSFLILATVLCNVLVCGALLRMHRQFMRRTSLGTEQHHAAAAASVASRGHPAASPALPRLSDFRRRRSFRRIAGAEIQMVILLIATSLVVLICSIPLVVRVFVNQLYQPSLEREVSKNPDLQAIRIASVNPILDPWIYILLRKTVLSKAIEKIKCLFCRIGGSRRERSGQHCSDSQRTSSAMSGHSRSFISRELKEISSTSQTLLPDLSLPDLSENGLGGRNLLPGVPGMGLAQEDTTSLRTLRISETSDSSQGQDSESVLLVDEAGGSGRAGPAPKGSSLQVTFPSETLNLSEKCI
Sequence of EP2 subtype of the human PGE2 receptor (P43116 whole entry): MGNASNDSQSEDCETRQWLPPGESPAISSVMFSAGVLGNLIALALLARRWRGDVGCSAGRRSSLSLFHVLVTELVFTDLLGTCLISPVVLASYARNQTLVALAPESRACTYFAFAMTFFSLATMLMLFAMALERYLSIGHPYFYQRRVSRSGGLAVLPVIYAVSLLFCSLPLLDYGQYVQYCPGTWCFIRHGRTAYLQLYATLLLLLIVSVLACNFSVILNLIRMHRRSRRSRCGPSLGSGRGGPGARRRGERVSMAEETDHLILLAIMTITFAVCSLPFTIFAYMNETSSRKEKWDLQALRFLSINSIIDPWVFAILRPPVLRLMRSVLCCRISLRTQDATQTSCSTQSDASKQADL

## COCCNC(=O)c1ccc2nn(CC3CCN(C(=O)c4ccc(-c5ccc(Cl)cc5OC)cc4)CC3)cc2c1C [Example 381, 2-({1-[(4′-chloro-2′-methoxybiphenyl-4-yl)carbonyl]piperidin-4-yl}methyl)-N-(2-methoxyethyl)-4-methyl-2H-indazol-5-carboxamide]
[1]
  Selectivity hEP2/hDP: xxx (xxx > 100)
[2]
  IC50: 5.84 nM
[3]
  Selectivity hEP2/hEP4: xxx (xxx > 100)

## Cc1c(C(=O)NCC2COCCO2)ccc2nn(CC3CN(C(=O)c4ccc(Cl)cc4)C3)cc12 (single isomer, unassigned) [Example 143, (S or R)-2-{[1-(4-chlorobenzoyl)azetidin-3-yl]methyl}-N-(1,4-dioxan-2-ylmethyl)-4-methyl-2H-indazol-5-carboxamide]
[1]
  Selectivity hEP2/hDP: xxx (xxx > 100)
[2]
  IC50: 36.8 nM
[3]
  Selectivity hEP2/hEP4: xxx (xxx > 100)

## Cc1c(C(=O)NCCOC(C)C)ccc2nn(CC3CCN(C(=O)c4ccc(C(F)(F)F)cc4)CC3)cc12 [Example 99, N-(2-isopropoxy-ethyl)-4-methyl-2-({1-[4-(trifluoro-methyl)benzoyl]-piperidin-4-yl}-methyl)-2H-indazol-5-carboxamide]
[1]
  Selectivity hEP2/hDP: xxx (xxx > 100)
[2]
  IC50: 10.4 nM
[3]
  Selectivity hEP2/hEP4: xxx (xxx > 100)

## COCCNC(=O)c1ccc2nn(CC3CN(C(=O)c4ccc(Cl)c(C(F)(F)F)c4)C3)cc2c1C [Example 123, 2-({1-[4-chloro-3-(trifluoromethyl)benzoyl]azetidin-3-yl}methyl)-N-(2-methoxy-ethyl)-4-methyl-2H-indazol-5-carboxamide]
[1]
  Selectivity hEP2/hDP: xxx (xxx > 100)
[2]
  IC50: 8.92 nM
[3]
  Selectivity hEP2/hEP4: xxx (xxx > 100)

## COC(C)CNC(=O)c1ccc2nn(CC3CN(C(=O)c4ccc(Cl)cc4)C3)cc2c1C (racemic) [Example 138, (+/−)-2-{[1-(4-chlorobenzoyl)azetidin-3-yl]methyl}-N-(2-methoxypropyl)-4-methyl-2H-indazol-5-carboxamide]
[1]
  Selectivity hEP2/hDP: xxx (xxx > 100)
[2]
  IC50: 160 nM
[3]
  Selectivity hEP2/hEP4: xxx (xxx > 100)

## Cc1c(C(=O)NCC(F)(F)F)ccc2nn(CC3CCN(C(=O)c4nc5ccccc5n4C)CC3)cc12 [Example 297, 4-methyl-2-({1-[(1-methyl-1H-benzimidazol-2-yl)carbonyl]piperidin-4-yl}-methyl)-N-(2,2,2-trifluoroethyl)-2H-indazol-5-carboxamide]
[1]
  Selectivity hEP2/hDP: xx (xx: 10-100)
[2]
  IC50: 460 nM
[3]
  Selectivity hEP2/hEP4: xx (xx: 10-100)

## Cc1c(C(=O)NCCC#N)ccc2nn(CC3CCN(C(=O)c4ccc(-c5ccc(F)cc5)cc4)CC3)cc12 [Example 407, N-(2-cyanoethyl)-2-({1-[(4′-fluorobiphenyl-4-yl)carbonyl]piperidin-4-yl}-methyl)-4-methyl-2H-indazol-5-carboxamide]
[1]
  Selectivity hEP2/hDP: xxx (xxx > 100)
[2]
  IC50: 11.6 nM
[3]
  Selectivity hEP2/hEP4: xxx (xxx > 100)

## Cc1c(C(=O)NCC2CCC2)ccc2nn(CC3CCN(C(=O)c4ccc(Oc5ccc(C(F)(F)F)cc5)cc4)CC3)cc12 [Example 403, N-(cyclobutylmethyl)-4-methyl-2-[(1-{4-[4-(trifluoromethyl)phenoxy]benzoyl}-piperidin-4-yl)methyl]-2H-indazol-5-carboxamide]
[1]
  Selectivity hEP2/hDP: xxx (xxx > 100)
[2]
  IC50: 9.59 nM
[3]
  Selectivity hEP2/hEP4: xxx (xxx > 100)

## COCCNC(=O)c1ccc2nn(CC3CCN(C(=O)c4ccc(-c5ccccc5)c(C)c4)CC3)cc2c1C [Example 394, N-(2-methoxyethyl)-4-methyl-2-({1-[(2-methylbiphenyl-4-yl)carbonyl]piperidin-4-yl}methyl)-2H-indazol-5-carboxamide]
[1]
  Selectivity hEP2/hDP: xxx (xxx > 100)
[2]
  IC50: 5.7 nM
[3]
  Selectivity hEP2/hEP4: xxx (xxx > 100)

## Cc1c(C(=O)NCCOC(C)C)ccc2nn(CC3CCN(C(=O)c4ccc(-c5ccc(F)cc5)cc4)CC3)cc12 [Example 100, 2-({1-[(4′-fluoro-biphenyl-4-yl)-carbonyl]piperidin-4-yl}methyl)-N-(2-isopropoxyethyl)-4-methyl-2H-indazol-5-carboxamide]
[1]
  Selectivity hEP2/hDP: xxx (xxx > 100)
[2]
  IC50: 6.21 nM
[3]
  Selectivity hEP2/hEP4: xxx (xxx > 100)

## COCCNC(=O)c1ccc2nn(CC3CN(C(=O)c4ccc(SC(F)(F)F)cc4)C3)cc2c1OC [Example 215, 4-methoxy-N-(2-methoxyethyl)-2-[(1-{4-[(trifluoromethyl)sulphanyl]benzoyl}azetidin-3-yl)methyl]-2H-indazol-5-carboxamide]
[1]
  Selectivity hEP2/hDP: xxx (xxx > 100)
[2]
  IC50: 39 nM
[3]
  Selectivity hEP2/hEP4: xxx (xxx > 100)

## Cc1c(C(=O)NCC(C)OCC2CC2)ccc2nn(CC3CCN(C(=O)c4ccc(C(F)(F)F)cc4)CC3)cc12 (racemic) [Example 104, (+/−)-N-[2-(cyclo-propylmethoxy)-propyl]-4-methyl-2-({1-[4-(trifluoro-mcthyl)benzoyl]-piperidin-4-yl}-methyl)-2H-indazol-5-carboxamide]
[1]
  Selectivity hEP2/hDP: xx (xx: 10-100)
[2]
  IC50: 513 nM
[3]
  Selectivity hEP2/hEP4: xx (xx: 10-100)

## Cc1c(C(=O)NCC(F)(F)F)ccc2nn(CC3CN(C(=O)c4ccc(Oc5ccc(C(F)(F)F)cn5)cc4)C3)cc12 [Example 177, 4-methyl-N-(2,2,2-trifluoroethyl)-2-{[1-(4-{[5-(trifluoromethyl)pyridin-2-yl]oxy}benzoyl)azetidin-3-yl]methyl}-2H-indazol-5-carboxamide]
[1]
  Selectivity hEP2/hDP: xxx (xxx > 100)
[2]
  IC50: 118 nM
[3]
  Selectivity hEP2/hEP4: xxx (xxx > 100)

## COCCNC(=O)c1ccc2nn(CC3CCN(C(=O)c4ccc(-c5ccccc5F)cc4)CC3)cc2c1C [Example 47, 2-({1-[(2′-fluoro-biphenyl-4-yl)-carbonyl]piperidin-4-yl}methyl)-N-(2-methoxyethyl)-4-methyl-2H-indazol-5-carboxamide]
[1]
  Selectivity hEP2/hDP: xxx (xxx > 100)
[2]
  IC50: 5.61 nM
[3]
  Selectivity hEP2/hEP4: xxx (xxx > 100)

## Cc1c(C(=O)NCC2COCCO2)ccc2nn(CC3CCN(C(=O)c4ccc(Oc5ccc(C(F)(F)F)cc5)cc4)CC3)cc12 (single isomer, unassigned) [Example 419, (R or S)—N-(1,4-dioxan-2-ylmethyl)-4-methyl-2-[(1-{4-[4-(trifluoromethyl)-phenoxy]benzoyl}piperidin-4-yl)methyl]-2H-indazol-5-carboxamide]
[1]
  Selectivity hEP2/hDP: xxx (xxx > 100)
[2]
  IC50: 10.9 nM
[3]
  Selectivity hEP2/hEP4: xxx (xxx > 100)

## COCCNC(=O)c1ccc2nn(CC3CCN(C(=O)c4ccc(C5CC5)cc4)CC3)cc2c1C [Example 20, 2-{[1-(4-cyclopropyl-benzoyl)piperidin-4-yl]methyl}-N-(2-methoxyethyl)-4-methyl-2H-indazol-5-carboxamide]
[1]
  Selectivity hEP2/hDP: xxx (xxx > 100)
[2]
  IC50: 7.33 nM
[3]
  Selectivity hEP2/hEP4: xxx (xxx > 100)

## COCCNC(=O)c1ccc2nn(CC3CCN(C(=O)c4ccc(C)cc4)CC3)cc2c1C [Example 12, N-(2-methoxyethyl)-4-methyl-2-{[1-(4-methylbenzoyl)-piperidin-4-yl]-methyl)-2H-indazol-5-carboxamide]
[1]
  Selectivity hEP2/hDP: xxx (xxx > 100)
[2]
  IC50: 20.3 nM
[3]
  Selectivity hEP2/hEP4: xxx (xxx > 100)
